Source: patent US20240156094A1, “MELATONIN COMPOSITION WITH METALS AND A METHOD FOR ENHANCING ENZYMATIC REACTIONS AND METABOLIC PATHWAYS IN PLANTS” (FERTIS INDIA PVT. LTD., priority 2021, published 2024)

How the values were obtained:
Format in all cases: in vivo
paddy grains = assay: Analysis of micronutrient absorption levels in paddy grains by ICP; conditions: paddy grain powder, acid digest
Procedure: Analysis of Micronutrients in Paddy Samples by ICP (Inductive Coupled Plasma) Equipment.
The method include the steps of:— • 1. 1 gm of grain powder was added to 60 ml of perchloric acid and Nitric acid (9:1) and were digested overnight. • 2. Heat the mixtures at 100 c for 2 hours until vapors change from red to white color. • 3. The resultant solution was filtered through a Whatman paper and makeup to 100 ml with 1% nitric acid. • 4. The solution was tested for micronutrients by ICP.

plants [1] = assay: Total polyphenol content (Folin-Ciocalteu, absorbance at 765 nm); conditions: 1 g test sample, 70% methanol extract
Procedure: Total polyphenol content were estimated by performing the following steps:— • 10-15 ml of 70% MeOH (70 ml methanol: 30 ml water) were added to 1 g of test sample • Filter through whatman filter paper 1 and was made up to 25 ml with 70% methanol. • 5 ml of folin ciocalteu's phenol reagent were added. • Incubation for 5 mins. • 4 ml of 7.5% Na2CO3 were added and incubated for 1 hr. • absorbance was measured at 765 nm.

plants [2] = assay: Total protein content (Lowry method, absorbance at 660 nm); conditions: 1 g of sample in 25 ml
Procedure: Total protein content in the sample content were estimated by performing Lowry method which include the following steps:— • 1 g of samples in 25 ml were filtered through whatman filter paper 1 • 4.5 ml of a reagent comprising NaOH, sodium potassium tartrate, and CuSO4.5H2O were added and incubated for 10 mins. • After incubation, 0.5 ml of Folin-Ciocalteu's phenol reagent were added and incubated for 30 mins. • Absorbance was measured with UV Vis Spectrophotometer At 660 nm and a standard graph was plotted.

Structure (SMILES): COc1ccc2[nH]cc(CCNC(C)=O)c2c1 [Melatonin, N-Acetyl-5-methoxytryptamine]
- Al (paddy grains): 241.3 ppm
- B (paddy grains): 40.5 ppm
- Ca (paddy grains): 405.7 ppm
- Co (paddy grains): 15.4 ppm
- Fe (paddy grains): 257.9 ppm
- Mg (paddy grains): 697.2 ppm
- Mn (paddy grains): 42.5 ppm
- Zn (paddy grains): 29.1 ppm
- Total Phenol content in ppm (plants [1]): 18.6 ppm
- Total Protein content in % (plants [2]): 0.076%
